# Assay results: patent US7888389B2 (The Regents of the University of Michigan, priority 2002, dated 2011)
# “Also recorded” adds a separate entry of the source.
# What was measured:
# [1] = human, in vivo; cited from earlier work
# [2] = in vivo; cited from earlier work
# [3] = cited from earlier work
# [4] = cited from earlier work; remark: listed apart in the source
# breast cancer cells = assay: Human breast cancer xenograft growth in athymic nude mice; assay type: in vivo
# Procedure: FIG. 5. […] 10^6 breast cancer cells were injected in the mammary fat pad of 4 groups of athymic, nude mice (5 mice per group). Control mice received no treatment.
# In this study, 10^6 breast cancer cells were injected in the mammary fat pad of 4 groups of athymic, nude mice (5 mice per group). Control mice received no treatment.
# copper-albumin = copper-albumin (Homo sapiens, UniProt P02768); settings: in vitro
# [5] = therapeutic dose 1,000-2,000 mg/day
# copper-albumin, sequence (P02768 25-609): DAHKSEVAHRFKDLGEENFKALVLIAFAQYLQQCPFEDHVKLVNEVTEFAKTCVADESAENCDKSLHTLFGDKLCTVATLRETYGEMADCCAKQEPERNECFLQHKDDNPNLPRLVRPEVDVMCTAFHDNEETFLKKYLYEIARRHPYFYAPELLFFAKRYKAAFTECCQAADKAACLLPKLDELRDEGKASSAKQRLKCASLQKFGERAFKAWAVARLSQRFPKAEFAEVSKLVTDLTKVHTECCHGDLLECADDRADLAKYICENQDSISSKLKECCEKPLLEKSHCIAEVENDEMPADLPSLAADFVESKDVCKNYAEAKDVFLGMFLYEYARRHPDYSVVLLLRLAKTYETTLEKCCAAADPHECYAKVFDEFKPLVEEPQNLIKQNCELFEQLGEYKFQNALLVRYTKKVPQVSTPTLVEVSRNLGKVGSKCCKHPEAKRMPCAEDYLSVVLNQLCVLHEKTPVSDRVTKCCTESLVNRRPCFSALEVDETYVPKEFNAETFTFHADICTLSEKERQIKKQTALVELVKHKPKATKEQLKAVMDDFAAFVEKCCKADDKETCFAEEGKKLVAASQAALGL
molecule,measurement,setting,value
"NC(=O)c1nnn(Cc2cc(Cl)c(C(=O)c3ccc(Cl)cc3)c(Cl)c2)c1N [CAI, carboxyamidotriazole]",disease stabilization in cancer patients having progressive disease before treatment,[1],49%
CC(C)(S)[C@@H](N)C(=O)O [penicillamine],initial hypersensitivity syndrome,[2],about a quarter to a third of patients
NCCNCCNCCN [trientine],patients with proteinuria,[3]; after several weeks of use,about 20%
same,cupruresis after the first few weeks of therapy,[3]; [5],2 to 3 mg
same,initial cupruresis,[3]; [5],4 to 5 mg
"CC(=O)[O-].CC(=O)[O-].[Zn+2] [zinc, zinc acetate]",toxicity,"[4]; 150 mg daily, 200 Wilson's disease patients",no toxicity at all
same,copper balance induced,[4]; at the two week point,−0.35 mg daily
same,time to bring urine copper and nonceruloplasmin plasma copper to subtoxic levels,[4]; in vivo,as long as six months
same,time to intestinal metallothionein induction and negative copper balance,[4]; in vivo,approximately two weeks
tetrapropylammonium tetrathiomolybdate [TP-TM],tumor growth curves versus control animals,"breast cancer cells; TM 1 mg/day, TP-TM 1 mg/day and 1.5 mg/day, p<0.01 vs control",effectively inhibiting tumor growth
same,TP-TM tumor growth inhibition compared with TM,breast cancer cells; TP-TM 1 and 1.5 mg/day vs AmmTM 1 mg/day,indistinguishable from that of AmmTM; also recorded: at least as effective as TM; also recorded: statistically indistinguishable from the TM curves
same,copper-albumin-TM tripartite binding,copper-albumin,show the standard copper-albumin-TM tripartite binding
